Laboratory results: patent US8507472B2 (priority 2010, dated 2013)
Read-outs that look alike come from different tables or passages of the source.

Key:
[1] = tested on: Alternaria solani; test: Alternaria test (tomato)/protective; assay type: in vivo
Procedure: (§1) Solvent: 49 parts by weight of N,N-dimethylformamide
(§2) Emulsifier: 1 part by weight of alkylaryl polyglycol ether
To produce a suitable preparation of active compound, 1 part by weight of active compound is mixed with the stated amounts of solvent and emulsifier, and the concentrate is diluted with water to the desired concentration.
To test for protective activity, young tomato plants are sprayed with the active compound preparation at the stated application rate. 1 day after the treatment, the plants are inoculated with a spore suspension of Alternaria solani and then remain at 100% rel. humidity and 22° C. for 24 h. The plants then remain at 96% rel. atmospheric humidity and a temperature of 20° C.
(§3) Evaluation is carried out 7 days after the inoculation. 0% means an efficacy which corresponds to that of the control, whereas an efficacy of 100% means that no infection is observed.

[2] = tested on: Botrytis cinerea; test: Botrytis test (bean)/protective; assay type: in vivo; details: 100 ppm active compound, protective, evaluation 2 days after inoculation
Procedure: (§4) Solvents: 24.5 parts by weight of acetone
(§5) • 24.5 parts by weight of dimethylacetamide Emulsifier: 1 part by weight of alkylaryl polyglycol ether
(§6) To produce a suitable preparation of active compound, 1 part by weight of active compound is mixed with the stated amounts of solvents and emulsifier, and the concentrate is diluted with water to the desired concentration.
To test for protective activity, young plants are sprayed with the active compound preparation at the stated application rate. After the spray coating has dried on, 2 small pieces of agar colonized by Botrytis cinerea are placed onto each leaf. The inoculated plants are placed in a dark chamber at about 20° C. and 100% relative atmospheric humidity.
2 days after the inoculation, the size of the infected areas on the leaves is evaluated. 0% means an efficacy which corresponds to that of the control, whereas an efficacy of 100% means that no infection is observed.

[3] = tested on: Leptosphaeria nodorum; test: Leptosphaeria nodorum test (wheat)/protective; assay type: in vivo
Procedure: as §1, §2
(§7) To produce a suitable preparation of active compounds, 1 part by weight of active compound is mixed with the stated amounts of solvent and emulsifier, and the concentrate is diluted with water to the desired concentration.
To test for protective activity, young wheat plants are sprayed with the active compound preparation at the stated application rate. 1 day after the treatment, the plants are inoculated with an aqueous spore suspension of Leptosphaeria nodorum and then remain at 100% rel. atmospheric humidity and 22° C. for 48 h. The plants are then placed in a greenhouse at 90% rel. atmospheric humidity and a temperature of 22° C.
Evaluation is carried out 7-9 days after the inoculation. 0% means an efficacy which corresponds to that of the control, whereas an efficacy of 100% means that no infection is observed.

[4] = tested on: Phytophthora infestans; assay type: in vivo
[5] = tested on: Pyrenophora teres; test: Pyrenophora teres test (barley)/protective; assay type: in vivo
Procedure, shortened: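 Protective test: young barley plants sprayed at the stated rate with compound in DMF/alkylaryl polyglycol ether diluted with water, inoculated with P. teres spores 1 day later, kept 48 h at 100% rel. humidity and 22° C., then greenhouse at 80% and 20° C. Efficacy scored 7-9 days post-inoculation (0% = control, 100% = no infection).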

[6] = tested on: Sphaerotheca fuliginea; test: Sphaerotheca test (cucumber)/protective; assay type: in vivo
Procedure: as §1, §2, §7
To test for protective activity, young cucumber plants are sprayed with the active compound preparation at the stated application rate. 1 day after the treatment, the plants are inoculated with a spore suspension of Sphaerotheca fuliginea. The plants are then placed in a greenhouse at 70% rel. atmospheric humidity and a temperature of 23° C.
as §3

[7] = tested on: Venturia inaequalis; test: Venturia test (apple)/protective; assay type: in vivo; details: 100 ppm active compound, protective, evaluation 10 days after inoculation
Procedure: Solvents: 24.5 parts by weight of acetone • 24.5 parts by weight of dimethylacetamide Emulsifier: 1 part by weight of alkylaryl polyglycol ether
as §6
(§8) To test for protective activity, young plants are sprayed with the active compound preparation at the stated application rate. After the spray coating has dried on, the plants are inoculated with an aqueous conidia suspension of the apple scab pathogen Venturia inaequalis and then remain in an incubation cabin at about 20° C. and 100% relative atmospheric humidity for 1 day.
(§9) The plants are then placed in a greenhouse at about 21° C. and a relative atmospheric humidity of about 90%.
(§10) Evaluation is carried out 10 days after the inoculation. 0% means an efficacy which corresponds to that of the control, whereas an efficacy of 100% means that no infection is observed.

[8] = tested on: DON/AcDON production; test: microbe, parasite or virus in culture; assay type: cell-based, Fusarium graminearum; details: 7 days at 28° C.; for inhibition at 50 µM: Fusarium graminearum, 168 h
[9] = tested on: Fusarium graminearum; test: microbe, parasite or virus in culture; assay type: cell-based; details: for inhibition at 50 µM: Fusarium graminearum, 72 h, read-out: % inhibition of the fungal growth of Fusarium graminearum at 50 μM
[10] = log P determination by HPLC retention times (alkan-2-one calibration)
[11] = tested on: Uromyces appendiculatus; test: Uromyces test (bean)/protective; assay type: in vivo; details: in vivo
Procedure: as §4, §5, §6
as §8, with “spore” for “conidia”, “bean rust” for “apple scab”, “Uromyces appendiculatus” for “Venturia inaequalis”
as §9, §10

[12] = 500 ppm active compound, tomato, protective, evaluation 7 days after inoculation
[13] = 500 ppm active compound, wheat, protective, evaluation 7-9 days after inoculation
[14] = 500 ppm active compound, barley, protective, evaluation 7-9 days after inoculation
[15] = 500 ppm active compound, cucumber, protective, evaluation 7 days after inoculation
[16] = log P(HCOOH), HCOOH, preparation examples in the text
[17] = log P, values marked [a] in Table 1
[18] = log P, values marked [b] in Table 1

SMILES	efficacy in % [2]	efficacy in % [7]	efficacy in % ([1]; in vivo)	efficacy in % ([4]; in vivo)	efficacy in % ([5]; in vivo)	efficacy in % ([6]; in vivo)	% inhibition of DON/AcDON at 50 μM [8]	% inhibition of the fungal growth of Fusarium graminearum at 50 μM [9]	efficacy in % ([3]; in vivo)	further results
Fc1ccc(-c2nn3c(c2-c2ccncc2)CCCC3)cc1 [Example 2, 2-(4-Fluorophenyl)-3-(pyridin-4-yl)-4,5,6,7-tetrahydropyrazolo[1,5-a]pyridine]	100%	95%								efficacy in % [1, 12]: 94%; efficacy in % [3, 13]: 80%; efficacy in % [4, 12]: 94%; efficacy in % [5, 14]: 95%; efficacy in % [6, 15]: 91%; inhibition at 50 µM [8]: 100%; inhibition at 50 µM [9]: 99%; chromatographic logP [10, 16]: 1.03; chromatographic logP [10, 17]: 1.03; chromatographic logP [10, 18]: 2.43
Nc1cc(-c2c(-c3ccc(F)cc3)nn3c2CCCC3)ccn1 [Example 3, 4-[2-(4-Fluorophenyl)-4,5,6,7-tetrahydropyrazolo[1,5-a]pyridin-3-yl]pyridine-2-amine]										efficacy in % [1, 12]: 95%; efficacy in % [3, 13]: 89%; efficacy in % [4, 12]: 90%; efficacy in % [5, 14]: 95%; inhibition at 50 µM [8]: 94%; inhibition at 50 µM [9]: 30%; chromatographic logP [10, 16]: 1.21; chromatographic logP [10, 17]: 1.21; chromatographic logP [10, 18]: 2.05
Fc1ccc(-c2nn3c(c2-c2ccncc2)CCC3)cc1 [Example 7]	95%	76%	95%	95%	80%	90%	99%	100%		
c1ccc(-c2nn3c(c2-c2ccncc2)CCCC3)cc1 [Example 9]	93%	95%	100%	90%	94%	86%	99%	100%	95%	
c1ccc(-c2nn3c(c2-c2ccncc2)CCC3)cc1 [Example 10]			70%	70%	80%	94%	100%	87%	80%	
Clc1ccc(-c2nn3c(c2-c2ccncc2)CCC3)cc1 [Example 11]				80%	70%	88%	100%	92%	70%	
O=C(Cc1ccccc1)Nc1cc(-c2c(-c3ccccc3)nn3c2CCCC3)ccn1 [Example 35]	96%	95%	94%	80%	78%				90%	
Fc1ccc(-c2nn3c(c2-c2ccnc(F)c2)CCC3)cc1 [Example 45]			95%	90%	95%		100%	21%		
c1cc(-c2c(-c3ccsc3)nn3c2CCC3)ccn1 [Example 46]			70%	70%	70%		100%	52%		
CC(C)Nc1cc(-c2c(-c3ccc(F)cc3)nn3c2CCC3)ccn1 [Example 52]	78%	94%	90%	95%	80%		99%	19%		
c1csc(-c2nn3c(c2-c2ccncc2)CCCC3)c1 [Example 62]			94%	80%	95%		100%	35%	78%	
C[C@@H](O)C(=O)Nc1cc(-c2c(-c3ccsc3)nn3c2CCCC3)ccn1 [Example 66]			70%	80%	95%		98%	50%		
COC(=O)Nc1cc(-c2c(-c3ccsc3)nn3c2CCCC3)ccn1 [Example 67]			80%	70%	95%		100%	60%		
CC(C)Nc1cc(-c2c(-c3ccccc3)nn3c2CCC3)ccn1 [Example 70, 4-[2-(Phenyl)-5,6-dihydro-4H-pyrrolo[1,2-b]pyrazol-3-yl]-N-isopropylpyridine-2-amine]		100%								efficacy in % [1, 12]: 90%; efficacy in % [3, 13]: 90%; efficacy in % [4, 12]: 95%; efficacy in % [5, 14]: 80%; efficacy in % [6, 15]: 94%; chromatographic logP [10, 16]: 1.21; chromatographic logP [10, 18]: 2.69
CC1CCc2c(-c3ccncc3)c(-c3ccc(F)cc3)nn21 (stereo not drawn) [Example 74]	100%	95%	95%	90%	100%	93%			88%	
CC1CCc2c(-c3ccnc(NC(=O)C4CC4)c3)c(-c3ccc(F)cc3)nn21 (stereo not drawn) [Example 78]	100%	100%			95%	100%			100%	efficacy in % [11]: 94%
COC1CCCn2nc(-c3ccc(F)cc3)c(-c3ccncc3)c21 (stereo not drawn) [Example 85]	100%			90%	100%	85%			75%	efficacy in % [11]: 85%
CCC(=O)Nc1cc(-c2c(-c3ccc(F)cc3)nn3c2CCOC3(C)C)ccn1 [Example 86]	100%	95%	90%		100%	100%			70%	efficacy in % [11]: 95%
CC(=O)Nc1cc(-c2c(-c3cccs3)nn3c2CCCC3)ccn1 [Example 87]	100%		80%	90%	90%	95%			70%	efficacy in % [11]: 93%
CC(C)C(=O)Nc1cc(-c2c(-c3ccc(F)cc3)nn3c2CCOC3)ccn1 [Example 91]	100%	95%	90%		95%	100%			78%	efficacy in % [11]: 95%
